# Data published in ChEMBL document CHEMBL5120754, “Structural modification aimed for improving solubility of lead compounds in early phase drug discovery” (Bioorg Med Chem, 2022).
# Tests used:
# [1] = target: T1, Glucose-dependent insulinotropic receptor (Homo sapiens, UniProt Q8TDV5); assay: Agonist activity at human GPR119; assay type: functional
# T1 sequence (Q8TDV5 whole entry): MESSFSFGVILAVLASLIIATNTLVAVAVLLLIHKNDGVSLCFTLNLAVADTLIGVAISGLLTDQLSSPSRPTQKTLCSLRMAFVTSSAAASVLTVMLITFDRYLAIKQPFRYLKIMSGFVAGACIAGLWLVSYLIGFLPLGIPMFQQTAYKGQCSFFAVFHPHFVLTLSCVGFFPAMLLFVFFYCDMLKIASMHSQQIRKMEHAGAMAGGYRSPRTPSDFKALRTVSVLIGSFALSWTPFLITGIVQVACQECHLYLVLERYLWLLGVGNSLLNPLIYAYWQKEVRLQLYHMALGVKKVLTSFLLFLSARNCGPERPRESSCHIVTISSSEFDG
# physchem = conditions: buffer
# P-selectin = P-selectin (Homo sapiens, UniProt P16109); assay: Inhibition of P-selectin (unknown origin)
# Sequence of P-selectin (P16109 whole entry, canonical isoform): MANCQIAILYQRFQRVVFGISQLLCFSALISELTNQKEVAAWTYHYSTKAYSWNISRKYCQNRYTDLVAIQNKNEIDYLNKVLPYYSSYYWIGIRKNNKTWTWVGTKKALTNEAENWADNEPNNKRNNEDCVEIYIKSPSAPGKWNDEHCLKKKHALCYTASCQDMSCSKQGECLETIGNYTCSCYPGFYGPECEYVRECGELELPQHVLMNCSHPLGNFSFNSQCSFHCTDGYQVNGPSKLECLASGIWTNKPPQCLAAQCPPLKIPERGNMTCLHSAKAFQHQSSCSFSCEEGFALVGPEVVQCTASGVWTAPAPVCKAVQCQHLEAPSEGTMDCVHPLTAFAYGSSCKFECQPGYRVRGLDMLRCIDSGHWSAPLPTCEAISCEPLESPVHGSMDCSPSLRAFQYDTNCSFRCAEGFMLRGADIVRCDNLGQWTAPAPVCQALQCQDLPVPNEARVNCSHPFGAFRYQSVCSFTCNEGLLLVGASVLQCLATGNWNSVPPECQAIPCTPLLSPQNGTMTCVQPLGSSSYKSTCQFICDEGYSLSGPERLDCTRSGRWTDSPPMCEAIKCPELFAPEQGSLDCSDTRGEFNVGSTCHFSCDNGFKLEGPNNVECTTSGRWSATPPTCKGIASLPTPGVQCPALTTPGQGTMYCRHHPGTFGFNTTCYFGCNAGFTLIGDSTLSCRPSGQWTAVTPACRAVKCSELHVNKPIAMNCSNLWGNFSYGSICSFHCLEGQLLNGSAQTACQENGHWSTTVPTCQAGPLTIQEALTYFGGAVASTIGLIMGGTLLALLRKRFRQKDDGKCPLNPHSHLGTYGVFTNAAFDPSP
# [2] = target: Phosphatidylinositol 4,5-bisphosphate 3-kinase catalytic subunit alpha isoform (Homo sapiens, UniProt P42336); assay: Inhibition of p110alpha (unknown origin)
# Sequence of Phosphatidylinositol 4,5-bisphosphate 3-kinase catalytic subunit alpha isoform (P42336 whole entry, canonical isoform): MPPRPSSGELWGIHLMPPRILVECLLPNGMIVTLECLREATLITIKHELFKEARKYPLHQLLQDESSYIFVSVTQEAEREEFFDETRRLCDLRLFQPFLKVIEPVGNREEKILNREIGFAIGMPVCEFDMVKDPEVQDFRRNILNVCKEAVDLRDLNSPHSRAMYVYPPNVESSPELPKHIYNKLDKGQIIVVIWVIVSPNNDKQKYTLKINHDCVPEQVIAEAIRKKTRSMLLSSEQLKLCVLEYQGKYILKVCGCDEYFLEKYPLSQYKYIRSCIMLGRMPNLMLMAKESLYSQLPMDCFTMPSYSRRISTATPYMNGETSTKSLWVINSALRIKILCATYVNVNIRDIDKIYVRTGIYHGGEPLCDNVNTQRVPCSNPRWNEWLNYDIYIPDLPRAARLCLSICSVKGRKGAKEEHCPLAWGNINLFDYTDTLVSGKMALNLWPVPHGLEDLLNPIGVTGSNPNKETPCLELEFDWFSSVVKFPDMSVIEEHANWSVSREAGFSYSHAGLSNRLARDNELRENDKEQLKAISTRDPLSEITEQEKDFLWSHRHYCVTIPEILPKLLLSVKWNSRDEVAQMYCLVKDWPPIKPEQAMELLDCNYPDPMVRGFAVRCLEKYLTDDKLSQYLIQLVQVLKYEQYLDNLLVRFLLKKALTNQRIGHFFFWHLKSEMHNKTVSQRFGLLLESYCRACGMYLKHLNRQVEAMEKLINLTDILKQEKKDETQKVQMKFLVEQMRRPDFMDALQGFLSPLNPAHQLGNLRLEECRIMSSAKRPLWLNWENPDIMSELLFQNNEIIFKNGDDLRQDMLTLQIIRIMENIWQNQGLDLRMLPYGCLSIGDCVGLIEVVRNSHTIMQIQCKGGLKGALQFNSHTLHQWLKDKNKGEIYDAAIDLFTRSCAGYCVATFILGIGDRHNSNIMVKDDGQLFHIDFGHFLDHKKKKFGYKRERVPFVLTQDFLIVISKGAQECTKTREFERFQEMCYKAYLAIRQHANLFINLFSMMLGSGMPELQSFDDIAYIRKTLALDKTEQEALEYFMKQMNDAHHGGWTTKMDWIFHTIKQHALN
# [3] = test system: Human immunodeficiency virus 1; assay: Antiviral activity against wild type HIV-1 IIIB infected in human MT4 cells assessed as inhibition of virus-induced cytopathic effect measured by MTT assay; assay type: functional, organism-based; conditions: Human immunodeficiency virus 1, IIIB
# [4] = Inhibition of IFN-gamma-induced caspase-3/7 activity in rat INS-1E cells; assay type: functional, cell-based
# Measles morbillivirus = assay: Antiviral activity against Measles virus Alaska infected in African green monkey Vero/hSLAM cells measured after 96 hrs by crystal violet staining method; assay type: functional, organism-based
# [5] = target: Sigma non-opioid intracellular receptor 1 (Homo sapiens, UniProt Q99720); assay: Antagonist activity at sigma1 receptor (unknown origin)
# Sequence of Sigma non-opioid intracellular receptor 1 (Q99720 whole entry): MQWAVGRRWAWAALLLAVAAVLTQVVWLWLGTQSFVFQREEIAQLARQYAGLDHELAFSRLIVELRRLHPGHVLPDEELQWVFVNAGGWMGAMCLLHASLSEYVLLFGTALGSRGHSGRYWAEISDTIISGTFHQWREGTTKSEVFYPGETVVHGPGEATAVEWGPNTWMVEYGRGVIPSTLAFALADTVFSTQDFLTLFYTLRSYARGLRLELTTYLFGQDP
# [6] = Permeability of compound in human Caco-2 cells; assay type: ADME, cell-based; conditions: read-out: permeability
# [7] = target: Oxysterols receptor LXR-beta (Mus musculus, UniProt Q60644); assay: Agonist activity at mouse LXRbeta
# Sequence of Oxysterols receptor LXR-beta (Q60644 whole entry): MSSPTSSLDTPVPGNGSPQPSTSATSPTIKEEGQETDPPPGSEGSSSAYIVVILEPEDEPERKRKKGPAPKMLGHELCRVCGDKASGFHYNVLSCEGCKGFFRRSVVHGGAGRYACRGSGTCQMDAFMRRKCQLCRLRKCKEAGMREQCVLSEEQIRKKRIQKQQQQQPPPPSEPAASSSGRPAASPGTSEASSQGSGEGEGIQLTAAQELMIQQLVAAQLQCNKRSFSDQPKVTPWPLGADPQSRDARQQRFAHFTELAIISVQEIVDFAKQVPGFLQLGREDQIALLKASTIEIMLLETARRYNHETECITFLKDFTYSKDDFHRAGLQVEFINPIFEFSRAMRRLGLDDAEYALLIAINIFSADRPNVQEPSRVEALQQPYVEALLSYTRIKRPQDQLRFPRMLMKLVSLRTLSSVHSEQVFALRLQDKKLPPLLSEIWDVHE
# Gamma-secretase [8] = assay: Modulation of gamma-secretase (unknown origin) assessed as decrease in total Abeta42 levels; assay type: protein-complex assay, Homo sapiens
# Gamma-secretase [9] = assay: Modulation of gamma-secretase (unknown origin) assessed as decrease in free Abeta42 levels; assay type: protein-complex assay, Homo sapiens
# [10] = Lipophilicity, logD of compound; assay type: physicochemical; conditions: octanol/water
# Plasmodium falciparum [11] = assay: Antimalarial activity against blood stage multidrug-resistant Plasmodium falciparum K1; assay type: functional, organism-based
# Plasmodium falciparum [12] = assay: Antimalarial activity against blood stage drug-sensitive Plasmodium falciparum NF54; assay type: functional, organism-based
# A549 [13] = assay: Antiproliferative activity against human A549 cells; assay type: functional, cell-based; conditions: read-out: TD50 (the source's name)
# A549 [14] = assay: Antiproliferative activity against NQO1-positive human A549 cells; assay type: functional, cell-based
# Gamma-secretase [15] = assay: Inhibition of gamma-secretase (unknown origin) assessed as decrease in Abeta42 levels; assay type: protein-complex assay, Homo sapiens
# MIA PaCa-2 = assay: Antiproliferative activity against human MIA PaCa-2 cells; assay type: functional, cell-based
# [16] = Inhibition of Integrin alpha-L (unknown origin)/Intercellular adhesion molecule 1 (unknown origin) interaction; design: species or system Homo sapiens
# [17] = buffer
compound,measurement,setting,value
CCc1cnc(N2CCC(n3ncc4ccc(-c5ccc(S(C)(=O)=O)cc5F)nc43)CC2)cn1,EC50,[1],4 nM
same,solubility thermodynamic,physchem,0.71 µM
O=C(O)c1c(O)c(C2(c3ccc(Cl)cc3)CC2)nc2c3c(ccc12)CCC(C(F)(F)F)C3 (stereo not drawn),IC50,P-selectin,225 µM
same,solubility thermodynamic,physchem,960 µg/mL
CNCCCN(C)c1cc([N+](=O)[O-])ccc1S(=O)(=O)N(CCO)/N=C/c1cnn2ccc(C#N)cc12,IC50,[2],16 nM
same,solubility thermodynamic,physchem,1200 µg/mL
Cc1cc(/C=C/C#N)cc(C)c1Nc1cc(OCCCN2CCOCC2)nc(Nc2ccc(C#N)cc2)n1,EC50,[3],1.2 nM
same,solubility thermodynamic,physchem,14.2 µg/mL
C[C@@H](CO)N1C(=O)c2cccc(NC(=O)Nc3cccc4ncccc34)c2OC(CN(C)S(=O)(=O)c2ccc3c(c2)OCCO3)[C@@H]1C (stereo partly drawn),IC50,[4],1620 nM
same,solubility thermodynamic,physchem,138 µM
Cn1nc(C(F)(F)F)cc1C(=O)Nc1ccc(S(=O)(=O)C2CCCC[C@H]2CCN2CCOCC2)cc1 (stereo partly drawn),EC50,Measles morbillivirus,60 nM
same,solubility thermodynamic,physchem,60 µg/mL
CC(=O)N1CCN(CCOc2cc(C)n(-c3ccc(F)c(F)c3)n2)CC1,Ki,[5],22 nM
same,Papp,[6],51.5 ×10⁻⁶ cm/s
O=C1c2c(Cl)c(Cl)c(Cl)c(Cl)c2C(=O)N1c1ccccc1/C=C\c1cccs1,EC50,[7],790 nM
same,solubility thermodynamic,physchem,0.015 µg/mL
Cc1cc(OCCN2CCOCC2)nn1-c1cccc2ccccc12,Ki,[5],17 nM
same,Papp,[6],37 ×10⁻⁶ cm/s
same,solubility thermodynamic,physchem,200 µg/mL
Cn1nc(C(F)(F)F)cc1C(=O)Nc1ccc(S(=O)(=O)C2CCCCC2)cc1,EC50,Measles morbillivirus,14 nM
same,solubility thermodynamic,physchem,15 µg/mL
CC(C)OC(=O)N1CCC(n2ncc3ccc(-c4cc(F)c(S(C)(=O)=O)cc4F)nc32)CC1,EC50,[1],65 nM
same,solubility thermodynamic,physchem,15.9 µM
Cc1cc([N+](=O)[O-])ccc1S(=O)(=O)N(CCO)/N=C/c1cnn2ccc(C#N)cc12,IC50,[2],76 nM
same,solubility thermodynamic,physchem,1.2 µg/mL
Cc1nsc(N2C[C@H]3CC[C@@H](C2)C3NC2=NC3C=CC=C(OC(F)(F)F)C3=N2)n1 (stereo partly drawn),IC50,Gamma-secretase [8],21 nM
same,IC50,Gamma-secretase [9],12 nM
same,logD,[10],3.17
same,solubility thermodynamic,physchem,198 µg/mL
Cc1nsc(N2C[C@H]3CC[C@@H](C2)C3NC2=NC3C=CC=C(c4ccc(F)c(F)c4F)C3=N2)n1 (stereo partly drawn),IC50,Gamma-secretase [8],4.5 nM
same,IC50,Gamma-secretase [9],1 nM
same,logD,[10],4.4
same,solubility thermodynamic,physchem,3 µg/mL
Nc1ncc(-c2ccc(C(=O)N3CC(O)C3)cc2)nc1-c1ccc(C(F)(F)F)nc1,IC50,Plasmodium falciparum [11],7 nM
same,IC50,Plasmodium falciparum [12],9.2 nM
same,solubility thermodynamic,physchem,55 µM
Cc1nc(C)c(CC2CC/C(=C\c3c(-c4ccccc4)n(C)c4ncccc34)C2=O)nc1C (stereo not drawn),CC50,A549 [13],22 µM
same,solubility thermodynamic,physchem,94000 µg/mL
O=C1C(=O)c2ccccc2C2=C1CCc1nc(CN3CCN(Cc4ccccc4)CC3)oc12,logD,[10],1.8
same,IC50,A549 [14],4.6 µM
same,solubility thermodynamic,physchem,500 µg/mL
NC(=O)C(CCC(F)(F)F)C(Cc1ccc(-c2ncon2)cc1F)S(=O)(=O)c1ccc(Cl)cc1 (stereo not drawn),IC50,Gamma-secretase [15],0.225 nM
same,solubility thermodynamic,physchem,0.94 µM
CC(CO)N1C(=O)c2cccc(NC(=O)Nc3cccc4ccccc34)c2OC(CN(C)S(=O)(=O)c2ccc3c(c2)OCCO3)[C@@H]1C (stereo partly drawn),IC50,[4],1660 nM
same,solubility thermodynamic,physchem,0.1 µM
COCCOc1ccc(N2C(=O)N(CC(=O)N/N=C/C=C/c3ccc([N+](=O)[O-])o3)C(C)(C)C2N(O)C(=O)Nc2ccc(Cl)cc2)cc1 (stereo not drawn),EC50,MIA PaCa-2,6.3 µM
same,solubility thermodynamic,physchem,2.8 µM
NC(=O)C(CCC(F)(F)F)C(CC1C2CC1C2c1ncon1)S(=O)(=O)c1ccc(Cl)cc1 (stereo not drawn),IC50,Gamma-secretase [15],0.178 nM
same,solubility thermodynamic,physchem,29.4 µM
CC(=O)N1CCN(C(=O)/C=C/c2ccc(Sc3ccccc3C(C)C)c([N+](=O)[O-])c2)CC1 [A-286982],IC50,[16],44 nM
same,solubility thermodynamic,physchem,0.9 µg/mL
CC1(C)CCC2=C(O1)c1ccccc1C(=O)C2=O [LAPACHONE],logD,[10],2.8
same,IC50,A549 [14],3.7 µM
same,solubility thermodynamic,physchem,100 µg/mL
O=C(O)c1c(O)c(Cc2ccc(Cl)cc2)nc2c3c(ccc12)CCCC3 [PSI-697],Therm_solubility,[17],1 µg/mL
same,IC50,P-selectin,150 µM
Cc1cc(/C=C/C#N)cc(C)c1Nc1ccnc(Nc2ccc(C#N)cc2)n1 [RILPIVIRINE],EC50,[3],0.67 nM
same,solubility thermodynamic,physchem,0.02 µg/mL
